These results are taken from patent publication US20180155344A1, “TRICYCLIC PIPERIDINE COMPOUNDS” (ACTELION PHARMACEUTICALS LTD, priority 2015, published 2018).

pIC50: −log10 of the molar value.

In this assay the target is T1, human TPH1 (Homo sapiens, UniProt P17752).
T1 sequence (P17752 1-444): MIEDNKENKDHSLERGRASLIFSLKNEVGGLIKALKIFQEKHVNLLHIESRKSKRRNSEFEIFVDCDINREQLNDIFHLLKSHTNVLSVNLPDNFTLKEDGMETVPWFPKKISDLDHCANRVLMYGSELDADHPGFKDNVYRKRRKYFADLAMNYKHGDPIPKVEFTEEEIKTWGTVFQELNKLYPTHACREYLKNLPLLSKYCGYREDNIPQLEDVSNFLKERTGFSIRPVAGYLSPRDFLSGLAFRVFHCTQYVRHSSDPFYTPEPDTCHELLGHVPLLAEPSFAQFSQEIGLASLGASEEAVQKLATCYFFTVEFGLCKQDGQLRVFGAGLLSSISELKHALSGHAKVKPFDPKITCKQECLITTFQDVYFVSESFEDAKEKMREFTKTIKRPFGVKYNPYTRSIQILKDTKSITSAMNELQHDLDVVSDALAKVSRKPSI
The assay can be described thus: biochemical. From the text: Biochemical In Vitro Assay Using Fluorescence Readout
To generate the enzyme, full length human TPH1 is cloned into the plasmid pET20b(+) (Novagen) and expressed in E. coli. The bacterial cells are ruptured by sonication on ice and the lysate is cleared by centrifugation. The resulting protein in the pellet is re-extracted and TPH1 is purified from the obtained lysate by affinity chromatography using a pterin cosubstrate analog immobilized to the resin of the column. The protein is further purified by size exclusion chromatography to remove protein aggregates. The activity of TPH1 is determined by using a fluorescence assay. The enzyme activity assay is carried out at 15° C. with atmosphere oxygen for the duration of 60 minutes in a volume of 64 μl. The reaction is carried out in a 0.1 M Tris-HCl buffer, adjusted to pH 7.6, containing 1 mM DTT, 0.2 mg/mL catalase, 100 μM (±)-6-methyl-5,6,7,8-tetrahydropterine dihydrochloride, 40 μM L-tryptophan, and 40-80 nM of TPH1. The reaction is started by bringing together L-tryptophan with all the other reaction substituents and stopped by quenching with perchloric acid (HClO4). The amount of 5-hydroxy-L-tryptophan produced during the enzymatic reaction is determined by fluorescence readout. Fluorescence, as determined at 540 nm when excited at 300 nm wavelength, increases proportionally to the 5-hydroxy-L-tryptophan formed. Compounds are prepared as 10 mM stock solution in DMSO, then diluted in 384-well plates using DMSO followed by a transfer of the dilutions into the assay plate. Fluorescence is measured for each well and the fluorescence at 540 nm wavelength is compared to the fluorescence of the vehicle in place of compound. […] The calculated IC50 values may fluctuate depending on the daily biochemical assay performance. Fluctuations of this kind are known to those skilled in the art.
`O=C(COc1cccnc1Cl)N1CCc2nc3ccccn3c2C1c1ccc(Cl)cc1F` (centres unmarked) [Example 1.4.3, 1-(1-(4-chloro-2-fluorophenyl)-3,4-dihydroimidazo[1,2-a:5,4-c′]dipyridin-2(1H)-yl)-2-((2-chloropyridin-3-yl)oxy)ethan-1-one] had a pIC50 of 6.57.
As to `O=C(COc1ccc(CN2CCOCC2)nc1Cl)N1CCc2nc3ccccn3c2C1c1ccc(Cl)cc1F` (centres unmarked) [Example 1.4.4, 1-(1-(4-chloro-2-fluorophenyl)-3,4-dihydroimidazo[1,2-a:5,4-c′]dipyridin-2(1H)-yl)-2-((2-chloro-6-(morpholinomethyl)pyridin-3-yl)oxy)ethan-1-one], the pIC50 is 7.05.
To `O=C(COc1ccc(N2CCOCC2)nc1Cl)N1CCc2nc3ccccn3c2C1c1ccc(Cl)cc1F` (centres unmarked) [Example 1.4.5, 1-(1-(4-chloro-2-fluorophenyl)-3,4-dihydroimidazo[1,2-a:5,4-c′]dipyridin-2(1H)-yl)-2-((2-chloro-6-morpholinopyridin-3-yl)oxy)ethan-1-one] belongs 8.30; to `CCc1nc(C)ccc1OCC(=O)N1CCc2nc3ccccn3c2C1c1ccc(Cl)cc1F` (centres unmarked) [Example 1.4.6, 1-(1-(4-chloro-2-fluorophenyl)-3,4-dihydroimidazo[1,2-a:5,4-c′]dipyridin-2(1H)-yl)-2-((2-ethyl-6-methylpyridin-3-yl)oxy)ethan-1-one], 7.11; to `CS(=O)(=O)Nc1ccc(OCC(=O)N2CCc3nc4ccccn4c3C2c2ccc(Cl)cc2F)c(Cl)n1` (centres unmarked) [Example 1.4.7, N-(6-chloro-5-(2-(1-(4-chloro-2-fluorophenyl)-3,4-dihydroimidazo[1,2-a:5,4-c′]dipyridin-2(1H)-yl)-2-oxoethoxy)pyridin-2-yl)methanesulfonamide], 8.00.
To `COCCN(C)c1ccc(OCC(=O)N2CCc3nc4ccccn4c3C2c2ccc(Cl)cc2F)c(Cl)n1` (centres unmarked) [Example 1.4.8, 1-(1-(4-chloro-2-fluorophenyl)-3,4-dihydroimidazo[1,2-a:5,4-c′]dipyridin-2(1H)-yl)-2-((2-chloro-6-((2-methoxyethyl)(methyl)amino)pyridin-3-yl)oxy)ethan-1-one] belongs 7.41; to `CS(=O)(=O)Nc1ccc(OCC(=O)N2CCc3nc4ccccn4c3C2c2ccc(Cl)cc2F)c(C2CC2)n1` (centres unmarked) [Example 1.4.9, N-(5-(2-(1-(4-chloro-2-fluorophenyl)-3,4-dihydroimidazo[1,2-a:5,4-c′]dipyridin-2(1H)-yl)-2-oxoethoxy)-6-cyclopropylpyridin-2-yl)methanesulfonamide], 6.44.
To `CN(CCO)c1ccc(OCC(=O)N2CCc3nc4ccccn4c3C2c2ccc(Cl)cc2F)c(Cl)n1` (centres unmarked) [Example 1.4.10, 1-(1-(4-chloro-2-fluorophenyl)-3,4-dihydroimidazo[1,2-a:5,4-c′]dipyridin-2(1H)-yl)-2-((2-chloro-6-((2-hydroxyethyl)(methyl)amino)pyridin-3-yl)oxy)ethan-1-one] belongs 7.06.
As to `CN(CC(F)(F)F)c1ccc(OCC(=O)N2CCc3nc4ccccn4c3C2c2ccc(Cl)cc2F)c(Cl)n1` (centres unmarked) [Example 1.4.11, 1-(1-(4-chloro-2-fluorophenyl)-3,4-dihydroimidazo[1,2-a:5,4-c′]dipyridin-2(1H)-yl)-2-((2-chloro-6-(methyl(2,2,2-trifluoroethyl)amino)pyridin-3-yl)oxy)ethan-1-one], the pIC50 was 7.85.
To `CN(C)c1ccc(OCC(=O)N2CCc3nc4ccccn4c3C2c2ccc(Cl)cc2F)c(Cl)n1` (centres unmarked) [Example 1.4.12, 1-(1-(4-chloro-2-fluorophenyl)-3,4-dihydroimidazo[1,2-a:5,4-c′]dipyridin-2(1H)-yl)-2-((2-chloro-6-(dimethylamino)pyridin-3-yl)oxy)ethan-1-one] belongs 7.24.
`O=C(NC1CC1)c1ccc(OCC(=O)N2CCc3nc4ccccn4c3C2c2ccc(Cl)cc2F)c(C2CC2)n1` (centres unmarked) [Example 1.4.13, 5-(2-(1-(4-chloro-2-fluorophenyl)-3,4-dihydroimidazo[1,2-a:5,4-c′]dipyridin-2(1H)-yl)-2-oxoethoxy)-N,6-dicyclopropylpicolinamide]: the pIC50 is 7.44.
For the compound `CS(=O)(=O)c1ccc(OCC(=O)N2CCc3nc4ccccn4c3C2c2ccc(Cl)cc2F)c(Cl)n1` (centres unmarked) [Example 1.4.14, 1-(1-(4-chloro-2-fluorophenyl)-3,4-dihydroimidazo[1,2-a:5,4-c′]dipyridin-2(1H)-yl)-2-((2-chloro-6-(methylsulfonyl)pyridin-3-yl)oxy)ethan-1-one], the negative-log IC50 (pIC50) is 6.54.
In the case of `CN(C)C(=O)c1ccc(OC2(C(=O)N3CCc4nc5ccccn5c4C3c3ccc(Cl)cc3F)CC2)c(Cl)n1` (centres unmarked) [Example 1.4.15, 6-chloro-5-(1-(1-(4-chloro-2-fluorophenyl)-1,2,3,4-tetrahydroimidazo[1,2-a:5,4-c′]dipyridine-2-carbonyl)cyclopropoxy)-N,N-dimethylpicolinamide], the pIC50 is 6.49.
In turn, `CS(=O)(=O)Nc1ccc(OC2(C(=O)N3CCc4nc5ccccn5c4C3c3ccc(Cl)cc3F)CC2)c(Cl)n1` (centres unmarked) [Example 1.4.16, N-(6-chloro-5-(1-(1-(4-chloro-2-fluorophenyl)-1,2,3,4-tetrahydroimidazo[1,2-a:5,4-c′]dipyridine-2-carbonyl)cyclopropoxy)pyridin-2-yl)methanesulfonamide] had a pIC50 of 6.31.
To `CN(C)C(=O)c1ccc(OC(C)(C)C(=O)N2CCc3nc4ccccn4c3C2c2ccc(Cl)cc2F)c(Cl)n1` (centres unmarked) [Example 1.4.17, 6-chloro-5-((1-(1-(4-chloro-2-fluorophenyl)-3,4-dihydroimidazo[1,2-a:5,4-c′]dipyridin-2(1H)-yl)-2-methyl-1-oxopropan-2-yl)oxy)-N,N-dimethylpicolinamide] belongs 6.02; to `O=C(COc1ccc(N2CCOCC2)cc1Cl)N1CCc2nc3ccccn3c2C1c1ccc(C2CC2)cc1F` (centres unmarked) [Example 1.5.1, 2-(2-chloro-4-morpholinophenoxy)-1-(1-(4-cyclopropyl-2-fluorophenyl)-3,4-dihydroimidazo[1,2-a:5,4-c′]dipyridin-2(1H)-yl)ethan-1-one], 8.05.
Compound `O=C(COc1ccc(N2CCOCC2)nc1Cl)N1CCc2nc3ccccn3c2C1c1ccc(C2CC2)cc1F` (centres unmarked) [Example 1.5.2, 2-((2-chloro-6-morpholinopyridin-3-yl)oxy)-1-(1-(4-cyclopropyl-2-fluorophenyl)-3,4-dihydroimidazo[1,2-a:5,4-c′]dipyridin-2(1H)-yl)ethan-1-one] gave a pIC50 of 8.22.
To `Cc1nc(N(C)C)ccc1OCC(=O)N1CCc2nc3ccccn3c2C1c1ccc(C2CC2)cc1F` (centres unmarked) [Example 1.5.3, 1-(1-(4-cyclopropyl-2-fluorophenyl)-3,4-dihydroimidazo[1,2-a:5,4-c′]dipyridin-2(1H)-yl)-2-((6-(dimethylamino)-2-methylpyridin-3-yl)oxy)ethan-1-one] belongs 7.38.
The compound `O=C(COc1cccnc1Cl)N1CCc2nc3ccccn3c2C1c1ccc(C2CC2)cc1F` (centres unmarked) [Example 1.5.4, 2-((2-chloropyridin-3-yl)oxy)-1-(1-(4-cyclopropyl-2-fluorophenyl)-3,4-dihydroimidazo[1,2-a:5,4-c′]dipyridin-2(1H)-yl)ethan-1-one] showed a pIC50 of 7.47.
To `CCc1nc(C)ccc1OCC(=O)N1CCc2nc3ccccn3c2C1c1ccc(C2CC2)cc1F` (centres unmarked) [Example 1.5.5, 1-(1-(4-cyclopropyl-2-fluorophenyl)-3,4-dihydroimidazo[1,2-a:5,4-c′]dipyridin-2(1H)-yl)-2-((2-ethyl-6-methylpyridin-3-yl)oxy)ethan-1-one] belongs 7.54.

What is called pIC50 is −log10 of the IC50, conventionally taken in molar units.
